Measured values as given in US9949980B2, “Drugs to prevent HPV infection” (Wisconsin Alumni Research Foundation, priority 2008, dated 2018).
Entries after “also recorded” stand apart in the source; their conditions may differ. Where two headings read alike, the source gives them in different places.

Columns and labels:
[1] = in vitro; conditions: human
[2] = system: HPV16 pseudoviruses; test: microbe, parasite or virus in culture; format: cell-based; conditions: Human papillomavirus 16, HEK-293T, 48 h
Outline: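 Viability was read by CellTiter Glo luminescence on the same wells used for the SEAP infection read-out, after 48 hrs further incubation.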

[3] = in vitro; conditions: human; remark: listed apart in the source
[4] = system: HPV16 pseudovirus; test: Luciferase assay: HPV16 pseudovirus with renilla luciferase reporter (HPV16wpA-RL); conditions: renilla luciferase reporter behind HPV16 promoter
Protocol: (§1) The protocol for the secondary screen was identical to that of the primary screen with the exception that all volumes were scaled up by a factor of four. RL activity was measured using the Renilla Luciferase Assay System (Promega).

[5] = in vitro; conditions: human; remark: listed apart in the source
Protocol: as §1

[6] = system: HPV16 virus; test: Wild type HPV16 infection in 293T cells, early viral gene expression by real time PCR; format: cell-based; conditions: 5 to 10 μM (FIG. 3: 10 μM), 48 hours post infection
Protocol: FIG. 3. Inhibition of infection by HPV 16 virus. Shown is the relative efficiency of infection by HPV16 virus in 293T cells as scored by quantifying early viral transcription using real time PCR for E2 (dark grey bars), E5 (white bars) and E7 (light grey bars) containing mRNAs at 48 hours post-infection in the absence (DMSO—vehicle only, values set at 100%) or the presence of the indicated compound (10 μM concentration). Data points shown are the average of triplicate sample values. The dotted line indicates the normalized value for no drug (set as 100% infection value).
The 21 selected compounds were also tested for their ability to inhibit infection by bonafide HPV16 in 293T cells by measuring early viral gene expression by real time PCR at 48 hours post infection (FIG. 3) after treatment of the cell with 5 to 10 μM of each compound. Consistently with the data of reporter gene assays, HPV early gene expression was inhibited by Compounds 4, 13, 14, 18 and 20. Given the large differences in IC50 and CD50, and the reproducible capacity to inhibit infection by HPV16 pseudovirus and HPV16 virus in different cell types, Compounds 13 and 14 were selected for further analysis.
After 2 day infection, total RNA was isolated from infected cell lysate and treated with DNase I (Promega) as previously. (Pyeon, D. et al., Establishment of human papillomavirus infection requires cell cycle progression, PLos Pathog. 2009 February; 5(2):e1000318. Epub 2009 Feb. 27). Complementary DNA (cDNA) was synthesized from the normalized total RNA with the SuperScript cDNA synthesis kit (Invitrogen). All oligonucleotide primers (0.5 μM) for PCR are previously published (Pyeon D. et al., Production of infectious human papillomavirus independently of viral replication and epithelial cell differentiation, Proc. Nat'l Acad. Sci. USA, 2005 Jun. 28; 102(26):9311-6, Epub 2005 Jun. 15) or listed in Table 2.
Conventional PCR was performed with Taq DNA polymerase (Promega) and the following cycle: denaturation at 94° C. for 5 min, 42 cycles of 94° C. for 30 sec., 55° C. for 1 min., and 72° C. for 1 min., followed by extension at 72° C. for 7 min. Final products were analyzed by 1% agarose gel electrophoresis and ethidium bromide staining. Quantitative RT-PCR was performed using QuantiTect SYBR green PCR kit (Qiagen) with the following cycle: denaturation at 95° C. for 5 min. and 40 cycles of 95° C. for 30 sec., 55° C. for 30 sec., and 72° C. for 30 sec.

[7] = system: HPV16 pseudovirus; test: microbe, parasite or virus in culture; format: cell-based; conditions: HaCaT, HPV16 pseudovirus
Excerpt: FIG. 2. Dose dependence inhibition of HPV16 pseudovirus infection in a human keratinocyte cell line (HaCaT). Graphed are the dose-dependent effects of lead compounds shown in Table 2 on the efficiency of infection by HPV16 pseudovirus scored by measuring luciferase reporter activity (squares) as well as their effects on cell viability (circles).
All but one of these compounds (6 is […]) were repurchased and subjected to a tertiary screen performed in the human keratinocyte cell line, HaCaT, and using HPV16 pseudoviruses encoding a third reporter gene, firefly luciferase, transcribed from a different, E1a, promoter.
The infectivity assay was repeated at least twice and each assay was performed in replicate (n≥3).
At 4 hours prior to exposure of cell to pseudoviruses, compounds were added to plates in 1% DMSO final concentration at the indicated amounts. Four hours later, 10 multiplicity of infection (M.O.I.) units of HPV16 pseudovirus carrying the plasmid LucF was added to the cells. 72 hours later, cells were lysed and luciferase assays performed using the Luciferase Assay System (Promega Cat. #E1501). For infection studies with HPV11 and HPV31 pseudoviruses, 200 virus genome equivalents (vge) of virus per cell were used. Cell viability was assessed in parallel plates by Luminescent Cell Viability Assay (Promega Cat. #G7571).

[8] = Primary HTS Viability % Average
[9] = read-out: Infectivity (SEAP Activity), 3 μM HTS standard concentration, 293T cells, 48 hrs
[10] = read-out: Infectivity vs. viability, 3 μM HTS standard concentration, ratio infectivity/viability
[11] = read-out: Primary HTS SEAP vs Viability, Table 2, first pair of columns (c2)
[12] = read-out: Primary HTS SEAP vs Viability, Table 2, second pair of columns (c4)

| SMILES | viability at 52 h, 3 μM [1, 8] | viability at 52 h, 3 μM ([1]; Viability (CelTiter Glow)) | activity at 3 µM [2, 9] | activity at 3 µM [2, 10] | activity at 3 µM [2, 11] | activity at 3 µM [2, 12] | viability at 52 h, 3.3 μM [3] | Luciferase assay RL % Average [4] | viability at 52 h, 3.3 μM [5] | Inhibition of HPV16 early gene expression (E2, E5, E7 mRNAs) [6] | Effect on infection and cytotoxicity, assayed independently [7] |
| --- | --- | --- | --- | --- | --- | --- | --- | --- | --- | --- | --- |
| CCOc1ccc(C(=O)Nc2ccc3oc(-c4ccccc4Br)nc3c2)cc1 [Compound 15, N-[2-(2-bromophenyl)-1,3-benzoxazol-5-yl]-4-ethoxybenzamide] | 89.5% | 93.8% | 26.4% | 28.1% | 11.1% | 41.6% | 95.7% | 102.39% | 97.7% |  |  |
| NNC(=O)c1cc(COc2cc(Cl)cc(Cl)c2)on1 [Compound 4, 5-[(3,5-dichlorophenoxy)methyl]-1,2-oxazole-3-carbohydrazide] | 94.5% | 90.4% | 22.6% | 25% | 18.3% | 26.9% |  | 68.26% |  | reproducible and significant inhibition; also recorded: inhibited | inhibit infection but also to cause cytotoxicity at similar doses |
| O=C1NC(=S)SC1=Cc1ccc(Oc2ccc([N+](=O)[O-])cn2)cc1 [Compound 12, 5-{4-[(5-nitro-2-pyridinyl)oxy]benzylidene)-2-thioxo-1,3-thiazolidin-4-one] |  | 132% | 28.3% | 21.5% | 39.4% | 17.2% |  | 105.80% |  |  |  |
| COc1ccc(C(O)(CNCc2ccccc2)c2ccc(Br)cc2)cc1 (stereo not drawn) [Compound 9, 2-(benzylamino)-1-(4-bromophenyl)-1-(4-methoxyphenyl)ethanol] | 101% | 105% | 29.9% | 28.4% | 16.5% | 43.4% | 102% | 71.67% | 99% |  |  |
| Cc1ccc(C2Nc3ccccc3NC3=C2C(=O)CC(c2ccccc2)C3)s1 (stereo not drawn) [Compound 22, 11-(5-methyl-2-thienyl)-3-phenyl-2,3,4,5,10,11-hexahydro-1H-dibenzo[b,e][1,4]diazepin-1-one] |  | 105% | 44.1% | 41.9% | 45.2% | 43% | 93.7% | 44.37% | 97.3% |  |  |
| O=C(N(c1cccc(C(F)(F)F)c1)C1C=CS(=O)(=O)C1)C(F)(F)F (stereo not drawn) [Compound 8, N-(1,1-dioxido-2,3-dihydro-3-thienyl)-2,2,2-trifluoro-N-[3-(trifluoromethyl)phenyl]acetamide] | 96.4% | 94.4% | 27.7% | 29.4% | 37.3% | 18.1% |  | 177.47% |  |  |  |
| FC(F)(F)c1cnc2c(c1)nc(S)n2-c1ccc(Cl)cc1 [Compound 20, 3-(4-chlorophenyl)-6-(trifluoromethyl)-3H-imidazo[4,5-b]pyridine-2-thiol] | 95.8% | 99.1% | 21.4% | 21.6% | 20.9% | 21.9% |  | 109.22% |  | reproducible and significant inhibition; also recorded: inhibited |  |
| O=C1NC(=S)SC1=Cc1cc(Br)ccc1OCc1ccccc1Cl [Compound 18, 5-{5-bromo-2-[(2-chlorobenzyl)oxy]benzylidene}-2-thioxo-1,3-thiazolidin-4-one] | 87.8% | 95.4% | 24.2% | 25.4% | 27.2% | 21.2% |  | 112.63% |  | reproducible and significant inhibition; also recorded: inhibited |  |
| Cc1nc2ccccn2c1C(=O)NC(C)c1ccccc1 (stereo not drawn) [Compound 3, 2-methyl-N-(1-phenylethyl)imidazo[1,2-a]pyridine-3-carboxamide] | 105% | 103% | 20.8% | 20.3% | 18.7% | 23% |  | 71.67% |  |  |  |
| COC(=O)C1=C(C)NC2=C(C(=O)c3ccccc32)C1c1cc2c(cc1Br)OCO2 (stereo not drawn) [Compound 11, methyl 4-(6-bromo-1,3-benzodioxol-5-yl)-2-methyl-5-oxo-4,5-dihydro-1H-indeno[1,2-b]pyridine-3-carboxylate] |  | 130% | 19.1% | 14.7% | 17.7% | 20.4% | 97.3% | 95.56% | 95.7% |  |  |
| CCOC(=O)CCc1c(C)nc2c(C)c(-c3ccccc3)nn2c1O [Compound 1, ethyl 3-(7-hydroxy-3,5-dimethyl-2-phenylpyrazolo[1,5-a]pyrimidin-6-yl)propanoate] | 85% | 93.4% | 22.9% | 24.5% | 13.1% | 32.6% |  | 64.85% |  |  |  |
| O=S1(=O)C=CC(Nc2cccc(C(F)(F)F)c2)C1 (stereo not drawn) [Compound 16, (1,1-dioxido-2,3-dihydro-3-thienyl)[3-(trifluoromethyl)phenyl]amine] | 98.2% | 92.9% | 28.4% | 30.6% | 36.1% | 20.6% |  | 146.76% |  |  |  |
| Cc1cc(O)n2c(nc3ccccc32)c1C(=O)O [Compound 2, 1-hydroxy-3-methylpyrido[1,2-a]benzimidazole-4-carboxylic acid] |  | 101% | 19.7% | 19.6% | 13.5% | 25.9% |  | 75.09% |  |  |  |
| CN1C(=O)C(c2c[nH]c3ccccc23)(c2c[nH]c3ccccc23)c2ccccc21 [Compound 10, 1′-methyl-1H,1″H-3,3′:3′,3″-terindol-2′(1′H)-one] |  | 105% | 38.8% | 37% | 34.4% | 43.2% |  | 30.72% |  |  |  |
